{
  "source": "patent US10906929B2",
  "about": "“Phosphoramidate nucleoside derivatives as anticancer agents” (NuCana plc, priority 2016, dated 2021)",
  "key": {"[1]": {"test_system": "L1210 cells infected with Mycoplasma hyorhinis (HYOR)", "assay": "Cytostatic activity in mycoplasma-infected cells", "assay_type": "cell-based, mouse", "source_text": "Tumor cell cultures were infected with M. hyorhinis (ATCC 17981) and after two or more passages (to avoid bias by the initial inoculum) successful infection was confirmed using the MycoAlert™ mycoplasma detection kit (Lonza, Basel, Switzerland). Although this assay is only semi-quantitative, a maximal infection was observed 3 to 4 days after subcultivation of the mycoplasma-exposed cells. Chronically infected tumor cell lines are further referred to as Cell line.Hyor. All tumor cell cultures were maintained in Dulbecco's modified Eagle's medium (DMEM) (Invitrogen) supplemented with 10% fetal bovine serum (Biochrom AG, Berlin, Germany), 10 mm HEPES, and 1 mm sodium pyruvate (Invitrogen). Cells were grown at 37° C. in a humidified incubator with a gas phase containing 5% CO2.\nThe cytostatic activity of the test compounds was examined in mycoplasma-infected and uninfected cancer cell lines. When assaying the effect of M. hyorhinis infection, monolayer MCF7 and MCF7.Hyor cells were seeded in 48-well microtiter plates (Nunc™, Roskilde, Denmark) at 10,000 cells/well (Corning Inc., Corning, N.Y.) […]. After 24 h, the cells were exposed to different concentrations of test compound and allowed to proliferate for 72 h (to ensure sufficient cell proliferation and mycoplasma growth) after which the cells were trypsinized and counted using a Coulter counter (Analis, Suarlée, Belgium). Suspension cells (L1210, L1210.Hyor, FM3A, and FM3A.Hyor) were seeded in 96-well microtiter plates (Nunc) at 60,000 cells/well in the presence of different concentrations of test compound. The cells were allowed to proliferate for 48 h and then counted using a Coulter counter. The 50% inhibitory concentration (IC50) was defined as the compound concentration required to reduce cell proliferation by 50%."}, "[2]": {"test_system": "Z-138 Mantle cell lymphoma", "assay": "In vitro viability assay, CellTiterGlo", "assay_type": "cell-based", "details": "Z-138, CellTiterGlo, 72 h", "protocol": "(§1) In vitro viability assay was performed to assess the effects of compounds on cell viability in selected cell lines over 72 h using the CellTiterGlo (CTG, Promega-G7573) assay. The tests were performed in duplicates with treatment of compounds at 9 points, 3.16 folds titration in 96 well plates over ˜72 h. The compound starting concentrations were […]. Cell viability assay using CellTiterGlo in 96-well plate were performed. Compounds were dissolved to 40 mM with thawed 100% DMSO. Compounds were serially diluted at 3.16-fold in thawed DMSO, and warmed to 37° C. before being dissolved in media (2 μl+200 μl). After compounds were dissolved in media, media containing compounds were warmed to 37° C. in incubator and then compounds in media were added to cell plates (50 μl+50 μl) in duplicates. The compounds' final concentrations were from 198 μM to 19.9 nM. Solubility of all compounds was checked and recorded again, then the plates were transferred to CO2 tissue culture incubator immediately and incubated for 3 days. DMSO final concentration is 0.5%."}, "[3]": {"test_system": "HL-60 Promyelocytic leukaemia", "assay": "In vitro viability assay, CellTiterGlo", "assay_type": "cell-based", "details": "HL-60, CellTiterGlo, 72 h", "protocol": "as §1"}, "[4]": {"test_system": "KG-1 Acute myelogenous leukaemia", "assay": "In vitro viability assay, CellTiterGlo", "assay_type": "cell-based", "details": "KG-1, CellTiterGlo, 72 h", "protocol": "as §1"}, "[5]": {"test_system": "RL Non-Hodgkin's lymphoma", "assay": "In vitro viability assay, CellTiterGlo", "assay_type": "cell-based", "details": "CellTiterGlo, 72 h", "protocol": "as §1"}, "[6]": {"test_system": "HEL92.1.7 Erythroleukaemia", "assay": "In vitro viability assay, CellTiterGlo", "assay_type": "cell-based", "details": "HEL92.1.7, CellTiterGlo, 72 h", "protocol": "as §1"}, "[7]": {"test_system": "MCF-7 Mammary epithelial adenocarcinoma", "assay": "In vitro viability assay, CellTiterGlo", "assay_type": "cell-based, human", "details": "MCF-7, CellTiterGlo, 72 h", "protocol": "as §1"}, "[8]": {"details": "Homo sapiens, read-out: EC50 (μM) Ab"}},
  "data": [
    {"smiles": "Nc1nc(Cl)nc2c1ncn2[C@H]1C[C@H](O)[C@@H](CO)O1", "note": "[Cladribine, cladribine, reference compound]", "values": [
      {"measurement": "Loss of potency", "setting": "[1]; L1210/HYOR versus L1210", "result": "8-fold"},
      {"measurement": "IC50", "setting": "[1]; Mus musculus, L1210, 48 h, read-out: IC50 L1210/HYOR", "result": 3, "unit": "µM"},
      {"measurement": "EC50", "setting": "[2]; [8]", "result": "< 0.019", "unit": "µM"},
      {"measurement": "Top Inhibition (%)", "setting": "[2]", "result": 99.7, "unit": "%"},
      {"measurement": "Top Inhibition (%)", "setting": "[3]", "result": 85, "unit": "%"},
      {"measurement": "EC50", "setting": "[3]; [8]", "result": "< 0.019", "unit": "µM"},
      {"measurement": "EC50", "setting": "[4]; [8]", "result": 0.17, "unit": "µM"},
      {"measurement": "Top Inhibition (%)", "setting": "[4]", "result": 93.5, "unit": "%"},
      {"measurement": "Top Inhibition (%)", "setting": "[5]", "result": 94.7, "unit": "%"},
      {"measurement": "EC50", "setting": "[5]; [8]", "result": "< 0.019", "unit": "µM"},
      {"measurement": "Top Inhibition (%)", "setting": "[6]", "result": 97.4, "unit": "%"},
      {"measurement": "EC50", "setting": "[6]; Homo sapiens, HEL 92.1.7, read-out: EC50 (μM) Ab", "result": "< 0.019", "unit": "µM"},
      {"measurement": "EC50", "setting": "[7]; Homo sapiens, MCF7, read-out: EC50 (μM) Ab", "result": "> 198", "unit": "µM"},
      {"measurement": "Top Inhibition (%)", "setting": "[7]", "result": 36.3, "unit": "%"}
    ]}
  ]
}
